Patent publication US10472341B2, “Bicyclic tetrahydrothiazepine derivatives useful for the treatment of neoplastic and/or infectious diseases” (APEIRON BIOLOGICS AG, priority 2015, dated 2019)
Structures can show the parent of a compound that is named as a salt.

How the values were obtained:
OT-II cells = assay: OT-II transfer model, oral administration: antigen-specific T cell proliferation and CD69; assay type: in vivo, mouse; conditions: mice
Procedure: • Single cell suspension of splenocytes was prepared from the spleen by rinsing cells through a sterile 70 μm filter with PBS • Cells were collected by centrifugation in an 15 ml tube, the cell pellet was resuspended in 1 ml of Erylyse buffer and incubated at room temperature for 5 minutes, tubes were filled up with PBS and cells were washed twice • Cells were counted and resuspended in the desired buffer volume for MACS-enrichment or flow cytometric analysis Isolation of CD4 T Cells from OT-II Transgenic Mice • Splenocytes were resuspended in MACS buffer ([…] MACS-buffer/10^7 cells) • CD4 T cells were isolated using the CD4 T cell isolation kit (Miltenyi) with LS-columns following manufacturer's recommendations CFSE-Labeling of T Cells • Cells were resuspended in PBS with 0.1% BSA at 1×10^7 cells/ml and CFSE-solution was added to final concentration of 2.5 μM CFSE • Incubated for 10 min at 37° C., swung each 2 min • Same volume of FCS added and incubated for 5 min at room temperature • Cells were washed twice with RMPI-10% FCS medium • Cells were counted and resuspended in PBS or medium at desired concentration OT-II Transfer • Day 0: OT-II cells were transferred in PBS (3*10^6. Cells in 100 μl PBS) by retro-orbital injection • Day 1: WT mice got OVA vaccinated (subcut. flank, 10 μg LPS, 2 μg OVA per animal) • 2 & 4 h later compounds were administrated; for oral dosing compound was used as suspension (0.5% methylcellulose in water), for i.v. dosing compound was solubilized in DMSO and diluted with PBS • Day 2: compounds were administrated twice in the morning (with 2 h time interval) • Day 3: Mice were sacrificed & splenocytes were isolated • T cell proliferation & phenotype was determined by flow cytometry • Flow cytometry-Staining (all Abs purchased from eBioscience and used as recommended by the manufacturer): B220-eF450, CD4-PE, CD25PerCPCy5.5, CD69-PC7, TCRVa2-APC, CD8-AF700, CD3-eF780; CFSE; 7-AAD • Acquisition on Beckman-Coulter Gallios, Analysis using Kaluza Software OT-I Transfer to Mice with B16-F10-OVA Tumors • Day 0: 100000 B16-F10-OVA tumor cells were inoculated subcutaneously at the flank of WT-mice • Day 7: OT-I cells were transferred in PBS (3*10^6. […]

NK cells = assay: NK cell stimulation by IL-2: IFN-gamma and TNF-alpha release; assay type: cell-based, human; conditions: for IFN-gamma / TNF-alpha: IL-2 stimulation
Procedure: Isolated NK cells were plated in Xvivo medium at 1.5*10^5 cells per in 96 well culture plates and stimulated with 50 ng/ml IL-2 (Aldesleukin) where indicated. Cytokine secretion was determined by ELISA, immune cell activation by flow cytometry (Beckman-Coulter Abs CD25-PC5, CD69-PC7 and acquisition on Beckman-Coulter Gallios) using 7-AAD exclusion as criterion for living cells. IL-2 is a key factor for survival, proliferation and activation of NK cells, thus linking adaptive immunity mediated by T cells with the innate immunity mediated by NK cells. Especially CD8 T cells release IL-2 locally at the site of antigen-encounter in the tumor, and thus support and activate NK cell anti-tumor functions. Compound example 67 has been chosen as an example. […] Thus, compounds have a unique potential to support the interlinked anti-tumor immunity of T and NK cells in the physiological context in vivo.

Monocytes = assay: FC receptor stimulation on myeloid cells (monocytes, precoated anti-GD2-Abs): TNF-alpha, IL-1, IL-6; assay type: cell-based, human
Procedure: Isolated Monocytes were plated in Xvivo medium at 1.5*10^5 cells per in 96 well culture plates and stimulated by precoated anti-GD2-Abs (10 μg/ml, Apeiron) where indicated. Cytokine secretion was determined by enzyme-linked immunosorbent assay (ELISA). The results of the above experiment titled “Enhancement of reactivity of immune cells to stimulation by tumor-cell bound therapeutic antibody” indicate that compounds can enhance FcR stimulation of immune cells. However, in a set-up as used therein, it is difficult to subtract the effects of tumor-cell contact from the effects of Fc-receptor stimulation. Therefore, the effect of FcR-stimulation by the same anti-GD2-Ab was tested in a tumor-cell free assay set-up, where the anti-GD2 antibodies were coated to cell culture plates, thereby mimicking cell-bound antibodies.

N[C@H]1CS(=O)(=O)c2cc(F)c(C(=O)NC3CC3(F)F)cc2N(Cc2ccc(Cl)cc2)C1=O (stereo partly drawn) [Example 1, (3R)-3-amino-5-[(4-chlorophenyl)methyl]-N-(2,2-difluorocyclopropyl)-8-fluoro-1,1,4-trioxo-2,3,4,5-tetrahydro-1λ^6,5-benzothiazepine-7-carboxamide hydrochloride]
Proliferated OT-II cells [% gated] average (OT-II cells; LPS & OVA vaccination, 10 mg/kg dosed orally, splenocytes day 3): 29.03 % gated
CD69 on transferred OT-II cells (OT-II cells; LPS & OVA, 10 mg/kg orally): CD69 was not further upregulated
Proliferation of OT-II cells (OT-II cells; LPS & OVA, 10 mg/kg orally, versus no compound): highly significantly (p<0.00001) enhanced

CCCCNC(=O)c1ccc2c(c1)N(Cc1ccc(OC(F)(F)F)cc1)C(=O)[C@@H](N)CS2(=O)=O.Cl [Example 67, (3R)-3-amino-N-butyl-1,1,4-trioxo-5-{[4-(trifluoromethoxy)phenyl]methyl}-2,3,4,5-tetrahydro-1λ^6,5-benzothiazepine-7-carboxamide hydrochloride]
IFN-gamma (NK cells; 0.03 μM): 0.71 ng/mL
TNF-alpha (NK cells; 0.03 μM): 0.04 ng/mL
IFN-gamma (NK cells; 0.1 μM): 0.72 ng/mL
TNF-alpha (NK cells; 0.1 μM): 0.03 ng/mL
IFN-gamma (NK cells; 0.3 μM): 1.00 ng/mL
TNF-alpha (NK cells; 0.3 μM): 0.06 ng/mL
IFN-gamma (NK cells; 1 μM): 1.23 ng/mL
TNF-alpha (NK cells; 1 μM): 0.09 ng/mL
IFN-gamma (NK cells; 3 μM): 1.50 ng/mL
TNF-alpha (NK cells; 3 μM): 0.10 ng/mL
IFN-gamma (NK cells; 10 μM): 1.40 ng/mL
TNF-alpha (NK cells; 10 μM): 0.12 ng/mL
IFN-gamma (NK cells; 30 μM): 1.22 ng/mL
TNF-alpha (NK cells; 30 μM): 0.14 ng/mL
responsiveness of NK cells upon IL-2 activation (release of IFN-gamma and TNF-alpha) (NK cells; NK cells, IL-2): can directly enhance the responsiveness of NK cells upon IL-2 activation

CC(C)NC(=O)c1cc2c(cc1F)S(=O)(=O)C[C@H](N)C(=O)N2Cc1ccc(Cl)cc1.Cl [Example 77, (3R)-3-amino-5-[(4-chlorophenyl)methyl]-8-fluoro-1,1,4-trioxo-N-(propan-2-yl)-2,3,4,5-tetrahydro-1λ^6,5-benzothiazepine-7-carboxamide hydrochloride]
IL-1 (Monocytes; FcR stimulated, 0.01 μM): 1.14 ng/mL
IL-6 (Monocytes; FcR stimulated, 0.01 μM): 1.61 ng/mL
TNF-alpha (Monocytes; FcR stimulated, 0.01 μM): 1.62 ng/mL
IL-1 (Monocytes; FcR stimulated, 0.03 μM): 1.52 ng/mL
IL-6 (Monocytes; FcR stimulated, 0.03 μM): 2.33 ng/mL
TNF-alpha (Monocytes; FcR stimulated, 0.03 μM): 2.49 ng/mL
IL-1 (Monocytes; FcR stimulated, 0.1 μM): 1.09 ng/mL
IL-6 (Monocytes; FcR stimulated, 0.1 μM): 2.10 ng/mL
TNF-alpha (Monocytes; FcR stimulated, 0.1 μM): 2.57 ng/mL
IL-1 (Monocytes; FcR stimulated, 0.3 μM): 4.16 ng/mL
IL-6 (Monocytes; FcR stimulated, 0.3 μM): 5.65 ng/mL
TNF-alpha (Monocytes; FcR stimulated, 0.3 μM): 6.57 ng/mL
IL-1 (Monocytes; FcR stimulated, 1 μM): 5.88 ng/mL
IL-6 (Monocytes; FcR stimulated, 1 μM): 7.46 ng/mL
TNF-alpha (Monocytes; FcR stimulated, 1 μM): 11.02 ng/mL
IL-1 (Monocytes; FcR stimulated, 3 μM): 5.50 ng/mL
IL-6 (Monocytes; FcR stimulated, 3 μM): 5.93 ng/mL
TNF-alpha (Monocytes; FcR stimulated, 3 μM): 14.11 ng/mL
IL-1 (Monocytes; FcR stimulated, 10 μM): 7.44 ng/mL
IL-6 (Monocytes; FcR stimulated, 10 μM): 5.86 ng/mL
TNF-alpha (Monocytes; FcR stimulated, 10 μM): 16.44 ng/mL
IL-1 (Monocytes; FcR stimulated, 30 μM): 7.77 ng/mL
IL-6 (Monocytes; FcR stimulated, 30 μM): 6.20 ng/mL
TNF-alpha (Monocytes; FcR stimulated, 30 μM): 14.85 ng/mL
activation of myeloid cells by FcR stimulation (TNF-alpha, IL-1, IL-6 secretion) (Monocytes; monocytes, plate-coated anti-GD2 antibodies): directly enhanced the activation of myeloid cells by FcR stimulation, which resulted in increased secretion of TNF-alpha, IL-1 and IL-6
IL-6 (Monocytes; unstimulated, 0.1 μM): 0.14 ng/mL
IL-6 (Monocytes; unstimulated, 0.3 μM): 0.13 ng/mL
IL-6 (Monocytes; unstimulated, 1 μM): 0.14 ng/mL
IL-6 (Monocytes; unstimulated, 3 μM): 0.13 ng/mL
IL-6 (Monocytes; unstimulated, 10 μM): 0.13 ng/mL
IL-6 (Monocytes; unstimulated, 30 μM): 0.13 ng/mL
TNF-alpha (Monocytes; unstimulated, 30 μM): 0.02 ng/mL
